Assays:
[1] = target: T1, Cytochrome P450 2B4dH(H226Y) (Oryctolagus cuniculus, UniProt P00178, H226Y); settings: for ΔAmax: 2B4dH, 1 μM P450, 25 °C, 50 mM potassium phosphate pH 7.4, 500 mM NaCl, 500 mM sucrose
[2] = target: T2, Human cytochrome P450 2B6dH (Homo sapiens, UniProt P20813); settings: 1 μM P450, 25 °C, 50 mM potassium phosphate pH 7.4, 500 mM NaCl, 500 mM sucrose
P450 2B4 [3] = target: T3, P450 2B4 (Oryctolagus cuniculus, UniProt P00178, H226Y); settings: ratio 2B4/2B6
2B6 = settings: ref [20]; cited from earlier work
[4] = target: T1, Cytochrome P450 2B4dH(H226Y); test: biochemical
[5] = target: T2, Human cytochrome P450 2B6dH; test: biochemical
P450 2B4 [6] = target: T3, P450 2B4; test: biochemical
P450 2B6 = P450 2B6 (Homo sapiens, UniProt P20813, D28G/E2A/H23K/H27K/N25S/P24T/R22K/R29K/T26S); test: biochemical

## COC(=O)[C@H](c1ccccc1Cl)N1CCc2sccc2C1 [Clopidogrel, clopidogrel]
[1]
  ΔAmax: 0.05 ± 0.001 OU μM^-1
[1]; ratio 2B4/2B6
  fold higher Ks of 2B4 compared with 2B6: ~6 fold
[2]
  ΔAmax: 0.04 ± 0.005 OU μM^-1
P450 2B4 [3]
  fold higher Ki of 2B4 than 2B6: 4 fold
2B6
  suppression of bupropion hydroxylation by 2B6: 68%
[4]
  Kd: 0.6 ± 0.06 µM
[5]
  Kd: 0.1 ± 0.07 µM
P450 2B4 [6]
  Ki: 0.36 ± 0.04 µM
P450 2B6
  Ki: 0.1 ± 0.01 µM

## Clc1ccccc1CN1CCc2sccc2C1 [Ticlopidine, ticlopidine]
[1]
  ΔAmax: 0.03 ± 0.008 OU μM^-1
[2]
  ΔAmax: 0.02 ± 0.001 OU μM^-1
2B6
  suppression of bupropion hydroxylation by 2B6: 90%
[4]
  Kd: 1.3 ± 0.1 µM
P450 2B4 [6]
  Ki: 0.81 ± 0.1 µM

From publication PMC3005796 (Biochemistry, 2010)
